{"source": "patent US20110176998A1", "about": "“IMAGING AND THERAPY OF VIRUS-ASSOCIATED TUMORS” (THE JOHNS HOPKINS UNIVERSITY, priority 2007, published 2011)", "key": {"BZLF1 protein (ZTA)": {"system": "BZLF1 protein (ZTA)", "test": "Western blot / immunoblot for ZTA (BZLF1 protein) in EBV positive cell lines", "format": "cell-based, Epstein-Barr virus", "description": "To detect expression of the EBV-TK or EBV-ZTA, total cell protein was first extracted by treating cells with lysis buffer (0.05 M Tris, pH 7.6, 0.15 M NaCl, 1% triton-X 100, 2 mM EDTA) containing protease inhibitors for 10 minutes at 4° C. The following reagents were added to 1 mL of lysis buffer: 2 μL leupeptin (5 mg/mL), 1 μL 0.2 M Na3VO4, 1 μL NaF, 1 μL aprotinin (10 mg/ml), 1 μL, pepstatin (2 mM), and 10 μL PMSF (100 mM) for 10 minutes at 4° C. Following centrifugation, the supernatant was collected and stored at −80° C. Protein concentration was determined with the BCA Protein Assay Kit (Pierce, Rockford, Ill.) according to the manufacturer's instructions. A 10 μg aliquot of total cellular protein was fractionated on a 7.5% SDS-polyacrylamide gel. Proteins were transferred to PROTRAN nitrocellulose membrane (Schleicher & Schuell, Keene, N.H.). The membranes were blocked with 5% blotting grade non-fat dry milk (Bio-rad, Hercules, Calif.) in PBS with 0.1% TWEEN-20 (PBS-T) at 4° C. overnight. The membranes were then washed with PBS-T twice followed by incubation with 1/1,000-diluted rabbit anti-TK sera from a rabbit immunized with a synthetic EBV-TK peptide ([…]) or anti-ZTA monoclonal antibody (Argene, North Massapequa, N.Y.) at room temperature for 1 hour. After washing, the membranes were incubated with HRP-conjugated goat anti-rabbit IgG antibodies or HRP-conjugated goat anti-mouse IgG antibodies (Amersham Pharmacia Biotech, Piscataway, N.J.) at a 1/5,000 dilution in PBS-T at room temperature for 1 hour. The membranes were washed twice and proteins were detected with ECL Western Blotting Detection reagents (Amersham Pharmacia Biotech). The membranes were exposed to X-OMAT film (Kodak, Rochester, N.Y.) at room temperature.\nFor lytic induction studies, cells were seeded at 10^6/ml, and treated with test compounds for 48 hours. Control untreated cells were incubated in parallel.\nCells were washed with PBS twice. Total cellular protein was extracted with lysis buffer. Proteins were electrophoresed in polyacrylamide and then transferred onto a PROTRAN nitrocellulose membrane (Schleicher&Schuell, Keene, N.H.). Blots were probed with primary antibody (Ab) overnight at 4° C. HRP-conjugated secondary Ab was added after washing and detected by an enhanced chemiluminescence system (ECL) (Amersham). The following antibodies were used: anti-ZTA (Argene), anti-f3-actin (Sigma), anti-mouse (Sigma)."}, "[1]": {"system": "EBV-positive lymphoblastoid cells (LCL)", "test": "immunofluorescence assay for BZLF1 protein in LCL cells", "format": "cell-based, Epstein-Barr virus", "conditions": "1 μM, 48 hours", "description": "LCL cells were treated with 1 μM Ara-c for 48 hours. The cells were then washed with PBS, resuspended, and plated on polylysine glass slides. Indirect immunofluorescence assays and fluorescence microscopy were performed. The slides were fixed in methanol at −20° C., washed with PBS, then incubated in primary antibody anti-ZTA (1:200) (Argene), washed with PBS, followed by secondary antibody incubation of donkey rhodamine-conjugated IgG (Jackson Pharmaceuticals, west Grove, Pa.). Mounting solution with 4′,6′-diamidino-2-phenylindole (DAPI) (Vector Shield) was used to mark the nucleus of the cell. Slides were then observed and photographed with 40× objectives on a E800 microscope (NIKON) with CCD camera (Princeton Instruments) using Metamorph software (Universial Imaging-Molecular Devices)."}, "EBV-TK": {"system": "EBV-TK", "test": "immunoblot for EBV-TK expression", "format": "cell-based, Epstein-Barr virus", "conditions": "Western blot", "description": "To detect expression of the EBV-TK or EBV-ZTA, total cell protein was first extracted by treating cells with lysis buffer (0.05 M Tris, pH 7.6, 0.15 M NaCl, 1% triton-X 100, 2 mM EDTA) containing protease inhibitors for 10 minutes at 4° C. The following reagents were added to 1 mL of lysis buffer: 2 μL leupeptin (5 mg/mL), 1 μL 0.2 M Na3VO4, 1 μL NaF, 1 μL aprotinin (10 mg/ml), 1 μL, pepstatin (2 mM), and 10 μL PMSF (100 mM) for 10 minutes at 4° C. Following centrifugation, the supernatant was collected and stored at −80° C. Protein concentration was determined with the BCA Protein Assay Kit (Pierce, Rockford, Ill.) according to the manufacturer's instructions. A 10 μg aliquot of total cellular protein was fractionated on a 7.5% SDS-polyacrylamide gel. Proteins were transferred to PROTRAN nitrocellulose membrane (Schleicher & Schuell, Keene, N.H.). The membranes were blocked with 5% blotting grade non-fat dry milk (Bio-rad, Hercules, Calif.) in PBS with 0.1% TWEEN-20 (PBS-T) at 4° C. overnight. […] The membranes were washed twice and proteins were detected with ECL Western Blotting Detection reagents (Amersham Pharmacia Biotech). […]"}, "[2]": {"system": "EBV viral DNA copy number", "test": "real-time PCR for EBV viral DNA copy number (viral replication)", "format": "cell-based, Epstein-Barr virus", "conditions": "for EBV viral replication (DNA copy number): LCL and SNU719 cells, 1 μM, 48 hours", "description": "Genomic DNA from treated cells were extracted with the QIAamp DNA mini kit (Qiagen, CA) according to the manufacturer's instructions. PCRs were set up in a volume of 50 μL with a TaqMan PCR core reagent kit (Perkin-Elmer Corp., Branchburg, N.J.). Fluorescent probes were custom synthesized by Perkin-Elmer Applied Biosystems. PCR primers were synthesized by Gibco BRL (Frederick, Md.). Each reaction contained 5 μL of 10× buffer A (4 mM MgCl2), amplification primers (300 nM), fluorescent probe (25 nM), dATP, dCTP, and dGTP (200 μM each), dUTP (400 uM), 1.25 U of AmpliTaq Gold, and 0.5 U of AmpErase uracil N-glycosylase. Extracted genomic DNA was used for amplification. DNA amplification was carried out in a 96-well reaction plate in a Perkin-Elmer Applied Biosystems 7700 sequence detector. Each sample was analyzed in duplicate, and multiple negative water blanks were included in each analysis. A calibration curve was run in parallel and in duplicate with each analysis, with DNA extracted from the EBV-positive cell line Namalwa as a standard.\nThe EBV genome was quantified by real-time PCR with the ICycler system (Biorad, Hercules, Calif.). Template DNA was extracted with a mini blood DNA Kit (Qiagen, Valencia, Calif.). […]. A calibration curve was run in parallel and in duplicate with each analysis, using DNA extracted from the diploid EBV-positive cell line Namalwa containing two integrated viral genomes per cell as a standard. Amplification data were collected with an MyiQ single color real-time PCR Detector (Biorad) and analyzed with the MyiQ software developed by Biorad."}, "Zta promoter": {"system": "Zta promoter", "format": "cell-based, Epstein-Barr virus", "conditions": "AGS cells"}, "AGS-BX1 cells": {"system": "AGS-BX1 cells", "test": "GFP assay in AGS-BX1 cells", "conditions": "1 μM"}}}
{"smiles": "Nc1ccn([C@@H]2O[C@H](CO)[C@@H](O)[C@@H]2O)c(=O)n1", "note": "[Cytarabine]", "values": [{"measurement": "BZLF1 protein (ZTA) expression", "setting": "BZLF1 protein (ZTA); AKATA(-BX1), LCL and SNU719 cells, 1 μM, 48 hours", "result": "induced"}, {"measurement": "LCL cells induced into lytic infection", "setting": "[1]", "result": 40, "unit": "%"}, {"measurement": "EBV early lytic gene TK expression", "setting": "EBV-TK", "result": "induced"}, {"measurement": "EBV viral replication (DNA copy number)", "setting": "[2]", "result": "did not induce"}, {"measurement": "EBV viral replication (DNA copy number)", "setting": "[2]; listed as Ara-c", "result": "not amplified"}, {"measurement": "Zta promoter luciferase activity", "setting": "Zta promoter", "result": "induced"}]}
{"smiles": "COC(=O)Nc1nc2ccc(C(=O)c3ccccc3)cc2[nH]1", "note": "[Mebendazole]", "values": [{"measurement": "GFP signal", "setting": "AGS-BX1 cells", "result": "induced GFP signal"}, {"measurement": "ZTA expression", "setting": "BZLF1 protein (ZTA); LCL cells and AKATA cells", "result": "induced"}, {"measurement": "increase of EBV viral DNA copy number", "setting": "[2]; LCL cells and Rael cells, 1 μM for 48 hours", "result": 20, "unit": "fold"}, {"measurement": "induction of BZLF1 promoter", "setting": "Zta promoter; 1 μM", "result": "induced"}]}
